In patent US20220002279A1, “NOVEL IMIDAZOLE DERIVATIVE” (priority 2018, published 2022):
pIC50: −log10 of the molar value. Converted amounts (≈) assume the structure as drawn.

What was measured:
[1] = target: T1, Pseudomonas aeruginosa LpxC enzyme (Pseudomonas aeruginosa, UniProt P47205); experiment: Inhibitory activity on Pseudomonas aeruginosa LpxC enzyme (fluorescamine method); format: biochemical; conditions: fluorescamine detection; 3.6 nmol/L enzyme, 20 μmol/L substrate, pH 8.0, 60 min
T1 construct: made in house; host or cells: Escherichia coli
T1 sequence (P47205 1-303): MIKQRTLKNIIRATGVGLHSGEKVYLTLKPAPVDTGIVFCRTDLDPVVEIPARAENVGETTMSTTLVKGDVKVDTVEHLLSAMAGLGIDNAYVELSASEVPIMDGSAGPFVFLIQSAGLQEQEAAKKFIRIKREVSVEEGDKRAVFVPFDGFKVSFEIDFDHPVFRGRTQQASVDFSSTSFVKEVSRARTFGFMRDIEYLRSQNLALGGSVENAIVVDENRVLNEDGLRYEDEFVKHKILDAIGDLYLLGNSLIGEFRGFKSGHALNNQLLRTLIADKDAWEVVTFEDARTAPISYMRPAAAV
Excerpt: Test Example 1 Evaluation of the Inhibitory Activity on Pseudomonas aeruginosa LpxC Enzyme (Fluoresamine Method)
To assay the activity of Pseudomonas aeruginosa LpxC enzyme, LpxC was reacted with its substrate, UDP-3-O-(R-3-hydroxydecanoyl)-N-acetylglucosamine, and the amount of the reaction product was quantified by the amino groups present in the product.
Specifically, to 3.6 nmol/L Pseudomonas aeruginosa LpxC enzyme (as acquired by preparing chromosomal DNA from Pseudomonas aeruginosa, obtaining the Pseudomonas aeruginosa LpxC genes by PCR (polymerase chain reaction) using LpxC specific primer, and incorporating the genes into a vector, followed by expression using Escherichia coli), 20 μmol/L UDP-3-O-(R-3-hydroxydecanoyl)-N-acetylglucosamine (Carbosynth) was added, and the mixture was incubated at room temperature for 60 minutes. This reaction was performed in a 40 mmol/L-HEPES buffer solution (pH 8.0) containing 0.02% Brij 35 and 25 nmol/L-zinc chloride. The reaction was terminated by the addition of 1.0 mg/mL-fluorescamine dissolved in a solvent obtained by mixing an equal amount of acetonitrile and dimethylformamide with the reaction mixture, and then, a 0.2 mol/L-sodium phosphate buffer solution (pH 8.0) was added thereto, and the amount of the reaction product was detected at an excitation wavelength/fluorescence wavelength=390 nm/495 nm. An inhibition curve was obtained by performing the aforementioned reaction in the presence of various concentrations of test compounds. From this inhibition curve, the concentration of test compound at which the amount of the reaction product was suppressed by 50% (IC50 value) was determined, which was used as an index for the inhibitory activity on Pseudomonas aeruginosa LpxC enzyme.

[2] = target: T2, Escherichia coli LpxC enzyme (Escherichia coli, UniProt P0A725); experiment: Inhibitory activity on Escherichia coli LpxC enzyme (fluorescamine method); format: biochemical; conditions: fluorescamine detection; 3.1 nmol/L enzyme, 20 μmol/L substrate, pH 6.5, 120 min; read-out: IC50 (inhibitory activity on Escherichia coli LpxC enzyme, Fluoresamine method)
T2 construct: made in house; host or cells: Escherichia coli
T2 sequence (P0A725 1-305): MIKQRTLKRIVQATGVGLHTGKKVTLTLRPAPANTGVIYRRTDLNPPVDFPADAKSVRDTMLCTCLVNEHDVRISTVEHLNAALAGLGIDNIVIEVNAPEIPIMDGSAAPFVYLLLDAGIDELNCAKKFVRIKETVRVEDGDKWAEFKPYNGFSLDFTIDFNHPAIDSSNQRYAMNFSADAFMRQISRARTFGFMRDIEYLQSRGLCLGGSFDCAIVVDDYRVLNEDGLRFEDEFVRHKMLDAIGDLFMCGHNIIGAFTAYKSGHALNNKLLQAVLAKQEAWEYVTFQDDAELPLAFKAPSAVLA
How it was run: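 LpxC reacted with UDP-3-O-(R-3-hydroxymyristoyl)-N-acetylglucosamine; product amine quantified after fluorescamine stop and pH 8.0 phosphate buffer addition, at 390 nm/495 nm. Inhibition curve built from a range of test compound concentrations.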

[3] = test system: Escherichia coli strain ATCC25922; experiment: Antimicrobial activity, MIC by broth microdilution; format: cell-based; conditions: ATCC25922, 18 h, cation-adjusted Mueller-Hinton broth, about 5×10^5 CFU/mL, 35° C., about 18 hours, read-out: MIC Escherichia coli ATCC25922
How it was run: (§1)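 CLSI-based broth microdilution in cation-adjusted Mueller-Hinton broth, inoculum about 5×10^5 CFU/mL from overnight heart infusion agar culture. Incubation 35° C. about 18 h; MIC is the lowest concentration with no visible growth.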

[4] = test system: Pseudomonas aeruginosa strain ATCC27853; experiment: Antimicrobial activity, MIC by broth microdilution; format: cell-based; conditions: ATCC27853, 18 h, cation-adjusted Mueller-Hinton broth, about 5×10^5 CFU/mL, 35° C., about 18 hours, read-out: MIC Pseudomonas aeruginosa ATCC27853
How it was run: as §1

[5] = test system: Klebsiella pneumoniae strain ATCC13883; experiment: Antimicrobial activity, MIC by broth microdilution; format: cell-based; conditions: ATCC13883, cation-adjusted Mueller-Hinton broth, about 5×10^5 CFU/mL, 35° C., about 18 hours, read-out: MIC Klebsiella pneumoniae ATCC13883
How it was run: as §1

SMILES | pIC50 [1] | pIC50 [2] | MIC [3] [µg/mL] | MIC [4] [µg/mL] | MIC [5] [µg/mL]
C[C@H](O)c1nccn1Cc1cc(-c2ccc(C#CC3CC3CO)cc2)on1 (stereo in doubt) [Compound 7, (1S)-1-(1-{[5-(4-{[trans-2-(hydroxymethyl)cyclopropyl]ethynyl}phenyl)-1,2-oxazol-3-yl]methyl}-1H-imidazol-2-yl)ethan-1-ol] | 8.35 | 7.81 | 0.25 (≈ 0.688 µM) | 16 (≈ 44 µM) | 0.5 (≈ 1.38 µM)
C[C@H](O)c1nccn1Cc1cc(-c2ccc(C#CC3CC3N)cc2)on1 (stereo in doubt) [Compound 9, (1S)-1-{1-[(5-(4-[(trans-2-aminocyclopropyl)ethynyl]phenyl}-1,2-oxazol-3-yl)methyl]-1H-imidazol-2-yl}ethan-1-ol] | 7.65 | 6.74 |  | 16 (≈ 45.9 µM) | 4 (≈ 11.5 µM)
C[C@H](O)c1nccn1Cc1cc(-c2ccc(C#CCCCO)cc2)on1 [Compound 1, 5-{4-[3-({2-[(1S)-1-Hydroxyethyl]-1H-imidazol-1-yl}methyl)-1,2-oxazol-5-yl]phenyl}pent-4-yn-1-ol] | 7.88 | 7.29 | 1 (≈ 2.85 µM) | 64 (≈ 182 µM) | 2 (≈ 5.69 µM)
C[C@H](O)c1nccn1Cc1cc(-c2ccc(C#CCCCO)c(F)c2)on1 [Compound 2, 5-{2-fluoro-4-[3-({2-[(1S)-1-hydroxyethyl]-1H-imidazol-1-yl}methyl)-1,2-oxazol-5-yl]phenyl} pent-4-yn-1-ol] | 8.16 | 7.77 | 1 (≈ 2.71 µM) | 64 (≈ 173 µM) | 2 (≈ 5.41 µM)
C[C@H](O)c1nccn1Cc1cc(-c2ccc(C#CCCCO)cc2F)on1 [Compound 3, 5-{3-fluoro-4-[3-({2-[(1S)-1-hydroxyethyl]-1H-imidazol-1-yl}methyl)-1,2-oxazol-5-yl]phenyl}pent-4-yn-1-ol] | 8.36 | 7.79 | 0.5 (≈ 1.35 µM) | 32 (≈ 86.6 µM) | 1 (≈ 2.71 µM)
C[C@H](O)c1nccn1Cc1cc(-c2ccc(C#CC3(N)CC3)cc2)on1 [Compound 4, (1S)-1-{1-[(5-{4-[(1-Aminocyclopropyl)ethynyl]phenyl}-1,2-oxazol-3-yl)methyl]-1H-imidazol-2-yl}ethan-1-ol] | 7.78 |  | 0.5 (≈ 1.44 µM) | 64 (≈ 184 µM) | 1 (≈ 2.87 µM)
Cc1cc(C#CCCCO)ccc1-c1cc(Cn2ccnc2[C@H](C)O)no1 [Compound 5, 5-{4-[3-({2-[(1S)-1-hydroxyethyl]-1H-imidazol-1-yl}methyl)-1,2-oxazol-5-yl]-3-methylphenyl} pent-4-yn-1-ol] | 6.88 |  |  | > 64 | 16 (≈ 43.8 µM)
C[C@H](O)c1nccn1Cc1cc(-c2ccc(C#CCCO)cc2)on1 [Compound 6, 4-{4-[3-({2-[(1S)-1-hydroxyethyl]-1H-imidazol-1-yl}methyl)-1,2-oxazol-5-yl]phenyl}but-3-yn-1-ol] | 7.65 |  |  | 64 (≈ 190 µM) | 4 (≈ 11.9 µM)
C[C@H](O)c1nccn1Cc1cc(-c2ccc(C#C[C@@H]3[C@H]4CNC[C@@H]34)cc2)on1 [Compound 10, (1S)-1-(1-{[5-(4-{[(1R,5S,6s)-3-Azabicyclo[3.1.0]hexan-6-yl]ethynyl}phenyl)-1,2-oxazol-3-yl]methyl}-1H-imidazol-2-yl)ethan-1-ol] | 7.84 | 6.91 |  | 8 (≈ 21.4 µM) | 
C[C@H](O)c1nccn1Cc1cc(-c2ccc(C#C[C@@H]3[C@H]4CN(C[C@H](O)CO)C[C@@H]34)cc2)on1 [Compound 11, (2S)-3-[(1R,5S,6R)-6-({4-[3-({2-[(1S)-1-Hydroxyethyl]-1H-imidazol-1-yl}methyl)-1,2-oxazol-5-yl]phenyl}ethynyl)-3-azabicyclo[3.1.0]hexan-3-yl]propan-1,2-diol] | 8.42 | 6.99 | 1 (≈ 2.23 µM) | 8 (≈ 17.8 µM) | 2 (≈ 4.46 µM)
C[C@H](O)c1nccn1Cc1cc(-c2ccc(C#CC3CN(C)C3)cc2)on1 [Compound 12, (1S)-1-{1-[(5-{4-[(1-Methylazetidin-3-yl)ethynyl]phenyl}-1,2-oxazol-3-yl)methyl]-1H-imidazol-2-yl}ethan-1-ol] | 7.34 |  |  | 32 (≈ 88.3 µM) | 16 (≈ 44.1 µM)
C[C@H](O)c1nccn1Cc1cc(-c2ccc(C#CC3CN(C[C@H](O)CO)C3)cc2)on1 [Compound 13] | 7.66 | 6.19 |  | 32 (≈ 75.7 µM) | 16 (≈ 37.9 µM)
C[C@H](O)c1nccn1Cc1cc(-c2c(F)cc(C#CCCCO)cc2F)on1 [Compound 14, 5-{3,5-Difluoro-4-[3-({2-[(1S)-1-hydroxyethyl]-1H-imidazol-1-yl}methyl)-1,2-oxazol-5-yl]phenyl}pent-4-yn-1-ol] | 7.81 |  |  | 64 (≈ 165 µM) | 8 (≈ 20.7 µM)
C[C@H](O)c1nccn1Cc1cc(-c2ccc(C#C[C@H]3C[C@@H]3[C@@H](O)CN)cc2)on1 [Compound 15, (R)-2-Amino-1-((1 S,2S)-2-((4-(3-((2-((S)-1-hydroxyethyl)-1H-imidazol-1-yl)methyl)isoxazol-5-yl)phenyl)ethynyl)cyclopropyl)ethanol] | 8.08 |  |  | 16 (≈ 40.8 µM) | 64 (≈ 163 µM)
C[C@H](O)c1nccn1[C@H](CO)c1cc(-c2ccc(C#CCCCO)cc2)on1 [Compound 16, 5-(4-{3-[(1S)-2-Hydroxy-1-{2-[(1S)-1-hydroxyethyl]-1H-imidazol-1-yl}ethyl]-1,2-oxazol-5-yl}phenyl)pent-4-yn-1-ol] | 8.59 |  |  | 16 (≈ 41.9 µM) | 4 (≈ 10.5 µM)
CC(O)CN1C[C@@H]2[C@@H](C#Cc3ccc(-c4cc(Cn5ccnc5[C@H](C)O)on4)cc3)[C@@H]2C1 (stereo partly drawn) [Compound 121, 1-[(1R,5S,6s)-6-({4-[5-((2-[(1S)-1-hydroxyethyl]-1H-imidazol-1-yl}methyl)-1,2-oxazol-3-yl]phenyl}ethynyl)-3-azabicyclo[3.1.0]hexan-3-yl]propan-2-ol] |  | 7.01 | 0.5 (≈ 1.16 µM) | 16 (≈ 37 µM) | 1 (≈ 2.31 µM)
C[C@H](O)c1nccn1Cc1cc(-c2ccc(C#C[C@@H]3[C@H]4CN(CCN)C[C@@H]34)cc2)on1 [Compound 122, (1S)-1-(1-{[5-(4-{[(1R,5S,6s)-3-(2-aminoethyl)-3-azabicyclo[3.1.0]hexan-6-yl]ethynyl}phenyl)-1,2-oxazol-3-yl]methyl}-1H-imidazol-2-yl)ethan-1-ol] |  | 7.07 | 4 (≈ 9.58 µM) | 4 (≈ 9.58 µM) | 4 (≈ 9.58 µM)
C[C@H](O)c1nccn1Cc1cc(-c2ccc(C#CC3CCN(C=O)CC3)cc2)on1 [Compound 127, 4-({4-[3-({2-[(1S)-1-hydroxyethyl]-1H-imidazol-1-yl}methyl)-1,2-oxazol-5-yl]phenyl}ethynyl)piperidine-1-carbaldehyde] |  | 7.22 | 2 (≈ 4.94 µM) | > 64 | 2 (≈ 4.94 µM)
CC(O)CN1CCC(C#Cc2ccc(-c3cc(Cn4ccnc4[C@H](C)O)no3)cc2)CC1 (stereo partly drawn) [Compound 128, 1-[4-((4-[3-({2-[(1S)-1-hydroxyethyl]-1H-imidazol-1-yl]methyl)-1,2-oxazol-5-yl]phenyl}ethynyl)piperidin-1-yl]propan-2-ol] |  | 6.48 | 8 (≈ 18.4 µM) | > 128 | 16 (≈ 36.8 µM)
